In patent US20060100431A1, “Biologically active compounds” (Amura Therapeutics Limited, priority 2002, published 2006):
Read-outs that look alike come from different tables or passages of the source.

Tests used:
CPB2.8ΔCTE = biological target: T1, CPB2.8ΔCTE (Leishmania mexicana, UniProt P36400); assay: Leishmania mexicana cysteine protease B (CPB) peptidase activity assay (Ki); format: biochemical; conditions: Ki, inhibitors of Leismania mexicana CPB protease
T1 construct: Wild-type recombinant CPB without the C-terminal extention (i.e. CPB2.8ΔCTE); Dr. Jeremy Mottram (Wellcome Centre for Molecular Parasitology, University of Glasgow)
Method: Unless otherwise stated, all general chemicals and biochemicals were purchased from either the Sigma Chemical Company, Poole, Dorset, U.K or from Fisher Scientific UK, Loughborough, Leicestershire, U.K. Absorbance assays were carried out in flat-bottomed 96-well plates (Spectra; Greiner Bio-One Ltd., Stonehouse, Gloucestershire, U.K.) using a SpectraMax PLUS384 plate reader (Molecular Devices, Crawley, U.K.). Fluorescence high throughput assays were carried out in either 384-well microtitre plates (Corning Costar 3705 plates, Fisher Scientific) or 96-well ‘U’ bottomed Microfluor W1 microtitre plates (Thermo Labsystems, Ashford, Middlesex, U.K.). Fluorescence assays were monitored using a SpectraMax Gemini fluorescence plate reader (Molecular Devices). For substrates employing either a 7-amino-4-methylcoumarin (AMC) or a 7-amino-4-trifluoromethylcoumarin (AFC) fluorophore, assays were monitored at an excitation wavelength of 365 nm and an emission wavelength of 450 nm and the fluorescence plate reader calibrated with AMC. For substrates employing a 3-amino-benzoyl (Abz) fluorophore, assays were monitored at an excitation wavelength of 310 nm and an emission wavelength of 445 nm; the fluorescence plate reader calibrated with 3-amino-benzamide (Fluka). Unless otherwise indicated, all the peptidase substrates were purchased from Bachem UK, St Helens, Merseyside, UK. Substrates utilizing fluorescence resonance energy transfer methodology (i.e. FRET-based substrates) were synthesized at Incenta Limited using published methods (Atherton & Sheppard, Solid Phase Peptide Synthesis, IRL Press, Oxford, U.K, 1989) and employed Abz (2-aminobenzoyl) as the fluorescence donor and 3-nitro-tyrosine [Tyr(NO2)] as the fluorescence quencher (Meldal, M. and Breddam, K., Anal. Biochem, 195, 141-147, 1991). Hydroxyethylpiperazine ethanesulfonate (HEPES), tris-hydroxylmethyl aminomethane (tris) base, bis-tris-propane and all the biological detergents (e.g. CHAPS, zwittergents, etc.) were purchased from CN Biosciences UK, Beeston, Nottinghamshire, U.K. Glycerol was purchased from Amersham Pharmacia Biotech, Little Chalfont, Buckinghamshire, U.K. Stock solutions of substrate or inhibitor were made up to 10 mM in 100% dimethylsulfoxide (DMSO) (Rathburns, Glasgow, U.K.) and diluted as appropriately required. In all cases the DMSO concentration in the assays was maintained at less than 1% (vol./vol.).
Assay protocols were based on literature precedent (Table 4; Barrett, A. J., Rawlings, N. D. and Woessner, J. F., 1998, Handbook of Proteolytic Enzymes, Academic Press, London and references therein) and modified as required to suit local assay protocols. Enzyme was added as required to initiate the reaction and the activity, as judged by the change in fluorescence upon conversion of substrate to product, was monitored over time. All assays were carried out at 25±1° C.
Wild-type recombinant CPB without the C-terminal extention (i.e. CPB2.8ΔCTE; Sanderson, S. J., et. al., Biochem. J., 347, 383-388, 2000) was obtained from Dr. Jeremy Mottram (Wellcome Centre for Molecular Parasitology, The Anderson College, University of Glasgow, Glasgow, U.K.). Activity assays were carried out in 100 mM sodium acetate; pH 5.5 containing 1 mM EDTA; 200 mM NaCl and 10 mM DTT (Alves, L. C., et. al., Mol. Biochem. Parasitol, 116, 1-9, 2001) using 0.25 nM enzyme. […] The rate of conversion of substrate to product was derived from the slope of the increase in fluorescence monitored continuously over time.
The apparent inhibition constant (Ki) for each compound was determined on the basis that inhibition was reversible and occurred by a pure-competitive mechanism. The Ki values were calculated, from the dependence of enzyme activity as a function of inhibitor concentration, by direct regression analysis (Prism v 3.02) using Equation 2 (Cornish-Bowden, A., 1995.). [formula]

Wild-type cruzipain = Wild-type cruzipain (Trypanosoma cruzi, UniProt P25779); assay: Trypanosoma cruzi cruzipain peptidase activity assay (Ki); format: biochemical
How it was run: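 Native cruzipain from T. cruzi Dm28 epimastigotes, 2.5 nM, in 100 mM sodium phosphate pH 6.75 with 1 mM EDTA and 10 mM L-cysteine, 25 °C, DMSO <1%. Rates taken from continuous fluorogenic substrate read; Ki by regression assuming reversible pure-competitive inhibition.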

[1] = read-out: Ki, inhibitors of cruzain and cruzipains

T1 sequence (P36400 126-343, stated change not applied): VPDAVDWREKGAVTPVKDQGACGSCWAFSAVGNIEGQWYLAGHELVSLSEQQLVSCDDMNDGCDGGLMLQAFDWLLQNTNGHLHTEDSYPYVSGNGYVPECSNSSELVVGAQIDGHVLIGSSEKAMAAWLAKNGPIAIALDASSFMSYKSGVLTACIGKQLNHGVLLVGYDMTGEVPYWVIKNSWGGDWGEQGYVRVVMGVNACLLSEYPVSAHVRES
Chain of Wild-type cruzipain (P25779 whole entry): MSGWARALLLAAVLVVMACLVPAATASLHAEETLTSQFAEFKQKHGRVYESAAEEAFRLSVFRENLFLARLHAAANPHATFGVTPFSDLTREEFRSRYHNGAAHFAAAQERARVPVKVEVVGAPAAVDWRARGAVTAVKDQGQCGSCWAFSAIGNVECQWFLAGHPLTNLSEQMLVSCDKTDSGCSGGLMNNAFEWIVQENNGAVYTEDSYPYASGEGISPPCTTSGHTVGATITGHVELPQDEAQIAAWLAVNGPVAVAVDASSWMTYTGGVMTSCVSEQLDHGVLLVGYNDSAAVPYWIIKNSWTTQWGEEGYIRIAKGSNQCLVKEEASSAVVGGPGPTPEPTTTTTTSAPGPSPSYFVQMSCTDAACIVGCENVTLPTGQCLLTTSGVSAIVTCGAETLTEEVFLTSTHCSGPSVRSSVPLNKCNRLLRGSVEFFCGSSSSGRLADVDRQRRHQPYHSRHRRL

Structure (SMILES) | Ki (CPB2.8ΔCTE) [µM] | Ki (Wild-type cruzipain) [µM] | Ki (Wild-type cruzipain; [1]) [µM]
CC(C)C[C@H](NC(=O)c1ccc(C(C)(C)C)cc1)C(=O)N1CC[C@@H]2[C@H]1C(=O)CN2C(=O)c1ccccc1 [Example 1, (3aR,6aS)-N-[(1S)-1-(4-Benzoyl-6-oxo-hexahydro-pyrrolo[3,2-b]pyrrole-1-carbonyl)-3-methyl-butyl]-4-tert-butylbenzamide] | < 5 | < 5 | –
CC(C)C[C@H](NC(=O)c1ccc(C(C)(C)C)cc1)C(=O)N1CC[C@@H]2[C@H]1C(=O)CN2C(=O)c1cccnc1 [Example 5, (3aR,6aS)-4-tert-Butyl-N-{(1S)-3-methyl-1-[6-oxo-4-(pyridine-3-carbonyl)-hexahydro-pyrrolo[3,2-b]pyrrole-1-carbonyl]-butyl}-benzamide] | < 5 | – | < 5
CC(C)C[C@H](NC(=O)c1ccc(C(C)(C)C)cc1)C(=O)N1CC[C@@H]2[C@H]1C(=O)CN2C(=O)c1ccncc1 [Example 6, (3aR,6aS)-4-tert-Butyl-N-{(1S)-3-methyl-1-[6-oxo-4-(pyridine-4-carbonyl)-hexahydro-pyrrolo[3,2-b]pyrrole-1-carbonyl]-butyl}-benzamide] | < 5 | – | < 5
CC(C)C[C@H](NC(=O)c1ccc(N(C)C)cc1)C(=O)N1CC[C@@H]2[C@H]1C(=O)CN2C(=O)c1cccnc1 [Example 21, (3aR,6aS)-4-Dimethylamino-N-{(1S)-3-methyl-1-[6-oxo-4-(pyridine-3-carbonyl)-hexahydro-pyrrolo[3,2-b]pyrrole-1-carbonyl]-butyl}-benzamide] | < 5 | – | < 5
CC(C)C[C@H](NC(=O)c1ccc(C(C)(C)C)cc1)C(=O)N1CC[C@@H]2[C@H]1C(=O)CN2C(=O)c1cccc(Oc2ccccc2)c1 [Example 24, (3aR,6aS)-4-tert-Butyl-N-{(1S)-3-methyl-1-[6-oxo-4-(3-phenoxy-benzoyl)-hexahydro-pyrrolo[3,2-b]pyrrole-1-carbonyl]-butyl}-benzamide] | < 5 | – | < 5
CC(C)C[C@H](NC(=O)c1ccc(C(C)(C)C)cc1)C(=O)N1CC[C@@H]2[C@H]1C(=O)CN2C(=O)c1cccc(Br)c1 [Example 25, (3aR,6aS)-N-{(1S)-1-[4-(3-Bromo-benzoyl)-6-oxo-hexahydro-pyrrolo[3,2-b]pyrrole-1-carbonyl]-3-methyl-butyl}-4-tert-butyl-benzamide] | < 5 | – | < 5
CC(C)C[C@H](NC(=O)c1ccc(C(C)(C)C)cc1)C(=O)N1CC[C@@H]2[C@H]1C(=O)CN2C(=O)c1ccc(-n2cncn2)cc1 [Example 26, (3aR,6aS)-4-tert-Butyl-N-{(1S)-3-methyl-1-[6-oxo-4-(4-[1,2,4]triazol-1-yl-benzoyl)-hexahydro-pyrrolo[3,2-b]pyrrole-1-carbonyl]-butyl}-benzamide] | < 5 | – | < 5
CC(C)C[C@H](NC(=O)c1ccc(C(C)(C)C)cc1)C(=O)N1CC[C@@H]2[C@H]1C(=O)CN2S(=O)(=O)c1ccccc1 [Example 119, (3aR,6aS)-N-[(1S)-1-(4-Benzenesulfonyl-6-oxo-hexahydro-pyrrolo[3,2-b]pyrrole-1-carbonyl)-3-methyl-butyl]-4-tert-butyl-benzamide] | < 5 | – | –
CC(C)C[C@H](NC(=O)c1ccc(-c2cccs2)cc1)C(=O)N1CC[C@@H]2[C@H]1C(=O)CN2S(=O)(=O)c1ccccc1 [Example 120, (3aR,6aS)-N-[(1S)-1-(4-Benzenesulfonyl-6-oxo-hexahydropyrrolo [3,2-b]pyrrole-1-carbonyl)-3-methyl-butyl]-4-thiophen-2-yl-benzamide] | < 5 | – | –
CC(C)C[C@H](NC(=O)c1ccc(N(C)C)cc1)C(=O)N1CC[C@@H]2[C@H]1C(=O)CN2C(=O)[C@H](CC(N)=O)NC(=O)OCc1ccccc1 [Example 148, (3aS,6aR)-((1S)-1-Carbamoylmethyl-2-{4-[(2S)-2-(4-dimethylaminobenzoylamino)-4-methyl-pentanoyl]-3-oxo-hexahydro-pyrrolo[3,2-b]pyrrol-1-yl}-2-oxo-ethyl)-carbamic acid benzyl ester] | < 5 | – | –
CC(C)C[C@H](NC(=O)c1cccc(CN)c1)C(=O)N1CC[C@@H]2[C@H]1C(=O)CN2C(=O)[C@H](C)c1ccccc1 [Example 176, (3aR,6aS)-3-Aminomethyl-N-{(1S)-3-methyl-1-[6-oxo-4-((2R)-2-phenyl-propionyl)-hexahydro-pyrrolo[3,2-b]pyrrole-1-carbonyl]-butyl}-benzamide] | < 5 | – | –
CC(C)C[C@H](NC(=O)c1cccc(CN)c1)C(=O)N1CC[C@@H]2[C@H]1C(=O)CN2C(=O)[C@@H](C)c1ccccc1 [Example 177, (3aR,6aS)-3-Aminomethyl-N-{(1S)-3-methyl-1-[6-oxo-4-((2S)-2-phenyl-propionyl)-hexahydro-pyrrolo[3,2-b]pyrrole-1-carbonyl]-butyl}-benzamide] | < 5 | – | –
CC(=O)N(C)CC(=O)N1CC(=O)[C@@H]2[C@H]1CCN2C(=O)[C@H](CC(C)C)NC(=O)c1ccc(N(C)C)cc1 [Example 201, (3aR,6aS)-N-((1S)-1-{4-[2-(Acetyl-methyl-amino)-acetyl]-6-oxo-hexahydro-pyrrolo[3,2-b]pyrrole-1-carbonyl}-3-methyl-butyl)-4-dimethylamino-benzamide] | < 5 | – | –
CC(C)CC[C@H](N)C(=O)N1CC(=O)[C@@H]2[C@H]1CCN2C(=O)[C@H](CC(C)C)NC(=O)c1ccc(N(C)C)cc1 [Example 213, (3aR,6aS)-N-{(1S)-1-[4-((2S)-2-Amino-5-methyl-hexanoyl)-6-oxo-hexahydro-pyrrolo[3,2-b]pyrrole-1-carbonyl]-3-methyl-butyl}-4-dimethylamino-benzamide] | < 5 | – | –
CC(C)C[C@H](NC(=O)c1ccc(N(C)C)cc1)C(=O)N1CC[C@@H]2[C@H]1C(=O)CN2C(=O)[C@@H](N)CC1CCCCC1 [Example 215, (3aR,6aS)-N-{(1S)-1-[4-((2S)-2-Amino-3-cyclohexyl-propionyl)-6-oxo-hexahydro-pyrrolo[3,2-b]pyrrole-1-carbonyl]-3-methyl-butyl}-4-dimethylamino-benzamide] | < 5 | – | –
CCCC(C)C(=O)N1CC(=O)[C@@H]2[C@H]1CCN2C(=O)[C@H](CC(C)C)NC(=O)c1ccc(N(C)C)cc1 (stereo partly drawn) [Example 230, (3aR,6aS)-4-Dimethylamino-N-{(1S)-3-methyl-1-[4-(2-methyl-pentanoyl)-6-oxo-hexahydro-pyrrolo[3,2-b]pyrrole-1-carbonyl]-butyl}-benzamide] | < 5 | – | –
CCCCCC(=O)N1CC(=O)[C@@H]2[C@H]1CCN2C(=O)[C@H](CC(C)C)NC(=O)c1ccc(N(C)C)cc1 [Example 234, (3aR,6aS)-4-Dimethylamino-N-[(1S)-1-(4-hexanoyl-6-oxo-hexahydro-pyrrolo[3,2-b]pyrrole-1-carbonyl)-3-methyl-butyl]-benzamide] | < 5 | – | –
Cc1ccc(C[C@H](NC(=O)c2ccc(C(C)(C)C)cc2)C(=O)N2CC[C@@H]3[C@H]2C(=O)CN3C(=O)Cc2ccccc2)cc1 [Example 360, (3aR,6aS)-4-tert-Butyl-N-[(1S)-1-(4-methyl-benzyl)-2-oxo-2-(6-oxo-4-phenylacetyl-hexahydro-pyrrolo[3,2-b]pyrrole-1-yl)-ethyl]-benzamide] | < 5 | – | –
